Test system: ornithine decarboxylase (ODC)
Experiment: Inhibition of TPA induction of ornithine decarboxylase (ODC assay)
Assay type: biochemical
Description: A classic measure of retinoic acid activity involves measuring the effects of retinoic acid on ornithine decarboxylase. The original work on the correlation between retinoic acid and decrease in cell proliferation was done by Verma & Boutwell, Cancer Research, 1977, 37,2196-2201. That reference discloses that ornithine decarboxylase (ODC) activity increased precedent to polyamine biosynthesis. It has been established elsewhere that increases in polyamine synthesis can be correlated or associated with cellular proliferation. Thus, if ODC activity could be inhibited, cell hyperproliferation could be modulated. Although all cases for ODC activity increases are unknown, it is known that 12-O-tetradecanoylphorbol-13-acetate (TPA) induces ODC activity. Retinoic acid inhibits this induction of ODC activity by TPA. […] Activity of exemplary compounds of the present invention in the above-described ODC assay is disclosed in Table 1 which provides the IC60 concentration for the respective exemplary compound. ("IC60 " is that concentration of the test compound which causes 60% inhibition in the ODC assay. By analogy, "IC80, for example, is that concentration of the test compound which causes 80% inhibition in the ODC assay.)

Row | Structure (SMILES) | IC60 (concentration causing 60% inhibition in the ODC assay (TPA-induced)) [nmols] | IC80 (concentration causing 80% inhibition in the ODC assay (TPA-induced), marked (IC80) in the IC60 column) [nmols]
1 | CCOC(=O)c1ccc(N=Nc2ccc3c(c2)/C(=N/OC)CCC3(C)C)cc1 [Compound D3, Ethyl 4-[(8(7H)-anti-(O-methyl oxime)-5,5-dimethyl-5,6-dihydronaphthalen-2-yl)azo]benzoate] | 8.4 | –
2 | CC1(C)CC=C(c2cccs2)c2ccc(C(=O)C=Cc3ccc(C(=O)O)cc3)cc21 [Compound D34, 4-[3-oxo-3-(7,8-dihydro-5-(2-thienyl)-8,8-dimethyl-2-naphthalenyl)-1-propenyl]-benzoic acid] | – | 4.3
